# Laboratory results reported in patent publication US20080311189A1, “Compositions Comprising Organometallic Molybdenum Compounds For Treating Cancer” (priority 2004, published 2008).
# What was measured:
# Type in all cases: cell-based
# [1] = tested on: Ehrlich ascites mouse tumor cell line; experiment: MTT viability assay, Ehrlich ascites cells; details: Ehrlich ascites mouse cancer cells, 3 hours incubation with drug, read 24 hours after removal of the drug
# Description: (§1) The cytotoxic activity of theses complexes was evaluated against 6 different cell lines, using the MTT assay (3-(4,5-dimethylthiazol-2-yl)-2,5-diphenyltetrazolium bromide assay) (Mosmann, T. J. Immunol. Methods, 1983, 65, 55-63) to measure the cell viability.
# (§2) Cell lines were routinely propagated in 75 cm^2 tissue culture flasks (SARSTEDT, Leicester, U.K.), in a humidified atmosphere of 5% CO2 in air at 37° C., and were trypsinized and harvested into new medium every 2-4 days, just before confluence. Cell lines were cultured for a minimum of two passages after thawing prior to experimentation.
# The Ehrlich ascites mouse tumor cell line was purchased at ECACC (European Collection of Cell culture) and propagated in NCTC-135 medium (Sigma, ref. N3262) 2 mM in L-glutamine, supplemented with 10% heat-inactivated fetal bovine serum (FBS) and 1% penicillin/streptomycin.
# (§3) This assay is based on the capacity of mitochondrial dehydrogenase enzymes in living cells to convert the yellow water soluble substrate (MTI) into a dark blue product which is quantified by spectrophotometric means. Briefly, exponentially growing cells were trypsinized, dispensed in sixplicates into 96-well tissue culture plates and allowed to attach overnight. The next day the cells were treated with various concentrations of the drug, ranging from 1 to 1000 μM. By addition of an adequate volume of a freshly prepared DMSO solution of the compound to the medium, the desired test concentrations were obtained. For. each test concentration and for the control which contained the corresponding amount of DMSO, 6 wells were used. After an incubation period of 3 hours the cells were carefully washed (twice) with phosphate buffer saline (PBS) and 100 μl of medium were added. The cells were incubated for 24 hours and 10 μl of a MTT solution (5 mg/ml) were added to each well. The tetrazolium/formazan reaction was allowed to proceed for 4 hours and the medium was carefully removed. The dark blue formazan crystals were dissolved by adding 150 μl of DMSO and agitating for 15 minutes in a plate shaker. The optical density was measured at […] using a 96-well multiscanner autoreader. The percentage of survival was calculated using the formula: % survival=live cell number [test]/live cell number [control]×100. The IC50 values were calculated by nonlinear regression analysis using the graphed Prism software (GraphPad Software, Inc., San Diego, Calif.) and are compiled in tables 2-4.
# (§4) Using the colorimetric mitochondrial function-based MTT viability assay, we examined the effects of molybdenum (II) complexes against 6 different cell lines, by measuring the cellular proliferation at 8 different concentrations ranging from 1 to 1000 μM, 24 hours after removal of the drug. The IC50 values were calculated from dose-response curves obtained by nonlinear regression analysis. FIG. 4 represent and compare dose-response curves obtained for several molybdenum compounds against the Ehrlich ascites mouse cell line.
# [2] = tested on: non-tumoral MRC-5 human fibroblast; experiment: MTT viability assay, non-tumoral human fibroblasts; details: MRC-5 human fibroblasts, 3 hours incubation with drug, 24 hours after removal
# Description: as §1, §2
# The […] cells, secondary human lung fibroblasts, were purchased at ECACC. The cells were grown in MEM with Earls' Salt and L-glutamine (Gibco, ref. 61100-053), supplemented with 10% fetal bovine serum (FBS) and 1% neomycin.
# as §3, §4
# [3] = tested on: GP-220 gastric human cell line; experiment: MTT viability assay, GP-220 cells; details: 3 hours incubation with drug, 24 hours after removal, read-out: IC50 VALUE, Human tumoral cell lines, Gastric GP-220
# Description: as §1, §2
# (§5) The tumnoral GP-202 and GP-220 gastric human cell lines were established at IPATIMUP (Instituto de Patologia e Imunologia Molecular da Universidade do Porto). […]
# (§6) This assay is based on the capacity of mitochondrial dehydrogenase enzymes in living cells to convert the yellow water soluble substrate (MTI) into a dark blue product which is quantified by spectrophotometric means. […] The optical density was measured at […] using a 96-well multiscanner autoreader. The percentage of survival was calculated using the formula: % survival=live cell number [test]/live cell number [control]×100. The IC50 values were calculated by nonlinear regression analysis using the graphed Prism software (GraphPad Software, Inc., San Diego, Calif.) and are compiled in tables 2-4. […]
# [4] = tested on: GP-202 gastric human cell line; experiment: MTT viability assay, GP-202 cells; details: 3 hours incubation with drug, 24 hours after removal, read-out: IC50 VALUE, Human tumoral cell lines, Gastric GP-202
# Description: as §1, §2, §5, §6
# [5] = tested on: MKN45 gastric human cell line; experiment: MTT viability assay, MKN-45 cells; details: 3 hours incubation with drug, 24 hours after removal, read-out: IC50 VALUE, Human tumoral cell lines, Gastric MKN-45
# Description: as §1, §2
# (§7) The tumoral MKN45 gastric and HT-29 colorectal human cell lines were purchased at ECACC. […]
# as §6
# [6] = tested on: HT-29 colorectal human cell line; experiment: MTT viability assay, HT-29 cells; details: 3 hours incubation with drug, 24 hours after removal, read-out: IC50 VALUE, Human tumoral cell lines, Colon HT-29
# Description: as §1, §2, §7, §6
Substance,IC50 [1],IC50 [2],IC50 [3],IC50 [4],IC50 [5],IC50 [6]
"[(η^5-Ind)Mo(CO)2{1,2-Ph(NH2)2}]BF4 [Compound 13]",67.6 ± 1.2 µM,73.7 ± 1.1 µM,,,,
"(η^3-C3H5)Mo(CO)2(4,7-diphenyl-1,10-phen)Br [Compound 25]",12.5 ± 1.2 µM,12.1 ± 1.1 µM,,,,
[(η^5-Ind)Mo(CO)2dppe]BF4 [Compound 14],5.8 ± 1.1 µM,20.3 ± 1.1 µM,,,,
"[(η^5-Ind)Mo(CO)2(1,4,7,10-tetrt)]BF4 [Compound 17]",19.9 ± 1.1 µM,213.5 ± 1.1 µM,,,,
[(η^5-Ind)Mo(CO)2tten]BF4 [Compound 16],8.4 ± 1.1 µM,91 ± 1.1 µM,,,,
"[(η^5-Ind)Mo(CO)2{5,6-Ph2-3-(2-py)-1,2,4-Tz}]BF4 [Compound 9]",,13.4 ± 1 µM,,,,
[(η^5-Cp)Mo(CO)2trithiane]BF4 [Compound 19],142.1 ± 1.1 µM,,,,,
"[(η^5-Ind)Mo(CO)2(2,2′-biq)]BF4 [Compound 8]",35 ± 1.1 µM,13 ± 1 µM,2.7 ± 1 µM,5 ± 1.1 µM,4.4 ± 1 µM,13.3 ± 1.1 µM
[(η^5-Cp)Mo(CO)2dppe]BF4 [Compound 21],20 ± 1.1 µM,24 ± 1 µM,,,,
"[(η^5-Cp)Mo(CO)2{5,6-Ph2-3-(2-py)-1,2,4-Tz}]BF4 [Compound 22]",105 ± 1.2 µM,68.9 ± 1.1 µM,,,,
"[(η^5-Ind)Mo(CO)2(4,4′-Ph2-2,2′-bpy)]BF4 [Compound 2]",13.7 ± 1.1 µM,,,,,
"(η^3-C3H5)Mo(CO)2(1,10-phen)Br [Compound 24]",7.3 ± 1 µM,,,,,
"[(η^5-Ind)Mo(CO)2(4,7-Ph2-1,10-phen)]BF4 [Compound 6]",5.7 ± 1 µM,14.9 ± 1 µM,1.8 ± 1.1 µM,4.2 ± 1.1 µM,4.6 ± 1.1 µM,6.6 ± 1 µM
[(η^5-Ind)Mo(CO)2(p-tolilDAB)]BF4 [Compound 3],6.6 ± 1 µM,84.1 ± 1 µM,,,,
[(η^5-Cp)Mo(CO)2tten]BF4 [Compound 20],138.9 ± 1.2 µM,139.8 ± 1.2 µM,,,,
"(η^3-C3H5)Mo(CO)2(2,3-Me2-p-tolilDAB)Br [Compound 23]",59.1 ± 1.1 µM,104 ± 1.1 µM,,,,
[(η^5-Ind)Mo(CO)2(CYDAB)]BF4 [Compound 4],140.3 ± 1.2 µM,75 ± 1.1 µM,,,,
"[(η^5-Ind)Mo(CO)2(4,7-Me2-1,10-phen)]BF4 [Compound 7]",29.5 ± 1 µM,64.4 ± 1.1 µM,,,,
[(η^5-Ind)Mo(CO)2(NCMe)2]BF4 [Compound 18],56.7 ± 1.7 µM,,,,,
[(η^5-Ind)Mo(CO)2trithiane]BF4 [Compound 15],20.7 ± 1 µM,136.6 ± 1 µM,,,,
[(η^5-Ind)Mo(CO)2phen]BF4 [Compound 5],32.9 ± 1 µM,73.3 ± 1.1 µM,,,,
[(η^5-Ind)Mo(CO)2bpy]BF4 [Compound 1],95.9 ± 1.1 µM,143.2 ± 1.1 µM,,,,
